Measurements taken from patent publication US20240425464A1, “Substituted Monohydrazides as Potent Antifungal Agents” (University of Kentucky Research Foundation, priority 2023, published 2024).
In brackets after ≈: the same amount, converted by molar mass.

Test system: Aspergillus fumigatus NRRL 163 (Q)
Assay: MIC determination by in vitro antifungal assay
Type: cell-based
Conditions: Aspergillus fumigatus, NRRL163; strain Q = A. fumigatus NRRL 163; read-out: MIC
In short: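 Twofold dilutions spanning 0.06–31.3 μg/mL were incubated with fungi for 48 h at 35° C in MOPS-buffered RPMI 1640 (pH 7.0), following modified CLSI M27-A3 and M38-A2 methods. Yeast cells were grown overnight in YPD, set to OD600 0.12 (~1×10^6 CFU/mL), then diluted 1:100.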

| Structure (SMILES) | MIC |
| --- | --- |
| O=C(NNc1ccc(F)cc1F)c1ccccn1 [Compound 2g] | > 31.3 µg/mL |
| O=C(NNc1ccc(F)cc1)c1ccc(F)cc1F [Compound 1d] | > 31.3 µg/mL |
| COc1ccc(NNC(=O)c2nc(F)ccc2F)cc1 [Compound 8f] | 31.3 µg/mL (≈ 112 µM) |
| O=C(NNc1cc(F)cc(F)c1)c1ccccn1 [Compound 2i] | ≤ 0.06 µg/mL |
| O=C(NNc1ccc(F)cc1)c1ncc(F)cc1F [Compound 7d] | > 31.3 µg/mL |
| O=C(NNc1cccc(Cl)c1)c1cnccn1 [Compound 9b] | > 31.3 µg/mL |
| COc1ccc(NNC(=O)c2ccc(F)cc2F)cc1 [Compound 1f] | > 31.3 µg/mL |
| COc1cccc(NNC(=O)c2cnccn2)c1 [Compound 9c] | 15.6 µg/mL (≈ 63.9 µM) |
| COc1ccc(NNC(=O)c2ccccn2)cc1 [Compound 2f] | > 31.3 µg/mL |
| O=C(NNc1ccc(F)cc1F)c1cnccn1 [Compound 9g] | > 31.3 µg/mL |
| COc1ccc(NNC(=O)c2cnccn2)cc1 [Compound 9f] | 31.3 µg/mL (≈ 128 µM) |
| COc1cccc(NNC(=O)c2ccc(Br)cn2)c1 [Compound 4c] | 15.6 µg/mL (≈ 48.4 µM) |
| COc1ccc(NNC(=O)c2ncc(F)cc2F)cc1 [Compound 7f] | 31.3 µg/mL (≈ 112 µM) |
| O=C(NNc1ccc(F)cc1)c1nc(F)ccc1F [Compound 8d] | 31.3 µg/mL (≈ 117 µM) |
| O=C(NNc1cc(F)ccc1F)c1ccccn1 [Compound 2h] | > 31.3 µg/mL |
| O=C(NNc1ccc(F)cc1)c1ccccn1 [Compound 2d] | 31.3 µg/mL (≈ 135 µM) |
| O=C(NNc1cc(Cl)cc(Cl)c1)c1ccccn1 [Compound 2j] | > 31.3 µg/mL |
| COc1ccc(NNC(=O)c2cccc(F)n2)cc1 [Compound 5f] | > 31.3 µg/mL |
| O=C(NNc1ccc(F)cc1)c1cccc(F)n1 [Compound 5d] | 31.3 µg/mL (≈ 126 µM) |

Same assay, conditions: strain Q = A. fumigatus NRRL 163

| Structure (SMILES) | MIC |
| --- | --- |
| COc1ccc(NNC(=O)c2ccc(F)cn2)cc1 [Compound 3f] | >31.3 μg/mL^−1 |
| O=C(NNc1ccc(Cl)cc1)c1ccccn1 [Compound 2e] | >31.3 μg/mL^−1 |
| O=C(NNc1cccc(Cl)c1)c1ccccn1 [Compound 2b] | >31.3 μg/mL^−1 |
| O=C(NNc1cccc(F)c1)c1cnccn1 [Compound 9a] | >31.3 μg/mL^−1 |
| C[C@@H]1[C@H](O)[C@@H](C)/C=C/C=C/C=C/C=C/C=C/C=C/C=C/[C@H](O[C@@H]2O[C@H](C)[C@@H](O)[C@H](N)[C@@H]2O)C[C@@H]2O[C@](O)(C[C@@H](O)C[C@@H](O)[C@H](O)CC[C@@H](O)C[C@@H](O)CC(=O)O[C@H]1C)C[C@H](O)[C@H]2C(=O)O [AmB, amphotericin B, reference compound] | 0.98 μg/mL^−1 |
| COc1cccc(NNC(=O)c2ccc(F)cn2)c1 [Compound 3c] | >31.3 μg/mL^−1 |
| O=C(NNc1cccc(F)c1)c1ccccn1 [Compound 2a] | >31.3 μg/mL^−1 |
| COc1cccc(NNC(=O)c2ccccn2)c1 [Compound 2c] | 7.8 μg/mL^−1 |
| O=C(NNc1cccc(F)c1)c1ccc(F)cc1F [Compound 1a] | >31.3 μg/mL^−1 |
| O=C(NNc1cccc(F)c1)c1ccc(F)cn1 [Compound 3a] | >31.3 μg/mL^−1 |
| O=C(NNc1cccc(F)c1)c1ccc(Br)cn1 [Compound 4a] | >31.3 μg/mL^−1 |
| O=C(NNc1cccc(F)c1)c1nc(F)ccc1F [Compound 8a] | >31.3 μg/mL^−1 |
| O=C(NNc1cccc(F)c1)c1ncc(F)cc1F [Compound 7a] | >31.3 μg/mL^−1 |
